Structures are written as SMILES.

Our source for the IC50 values is ChEMBL document CHEMBL5725614, “Histone demethylase inhibitors” (2018).

Assay [1] is described as follows: PHF8 Assay: The ability of test compounds to inhibit the activity of PHF8 was determined in 384-well plate format under the following reaction conditions: 3 nM PHF8, 200 nM H3K9me1-biotin labeled peptide (Anaspec cat #64358), 0.5 μM alpha-ketoglutaric acid in assay buffer of 50 mM HEPES, pH7.3, 0.005% Brij35, 0.5 mM TCEP, 0.2 mg/ml BSA, 50 μM sodium L-ascorbate, and 5 μM ammonium iron(II) sulfate. Reaction product was determined quantitatively by TR-FRET after the addition of detection reagent Phycolink Streptavidin-allophycocyanin (Prozyme) and Europium-anti-unmodified-histone H3 lysine 9/lysine27 (H3K9/K27) antibody (PerkinElmer) in the presence of 5 mM EDTA in LANCE detection buffer (PerkinElmer) at a final concentration of 25 nM and 0.5 nM, respectively.The assay reaction was initiated by the following: 2 μl of the mixture of 600 nM H3K9me1-biotin labeled peptide and 1.5 μM alpha-ketoglutaric acid with 2 μl of 11-point serial diluted inhibitor in 3% DMSO were added to each well of the plate, followed by the addition of 2 μl of 9 nM PHF8 to initiate the reaction. The reaction mixture was incubated at room temperature for 15 minutes, and terminated by the addition of 6 μl of 5 mM EDTA in LANCE detection buffer containing 50 nM Phycolink Streptavidin-allophycocyanin and 1 nM Europium-anti-unmodified H3K9/K27 antibody. Plates were read by EnVision Multilabel Reader in TR-FRET mode (excitation at 320 nm, emission at 615 nm and 665 nm) after 1 hour incubation at room temperature. A ratio was calculated (665/615) for each well and fitted to determine inhibition constant (IC50).

Assay [2] in a line: FBXL11 Assay: The ability of test compounds to inhibit the activity of FBXL11 was determined in 384-well plate format under the following reaction conditions: 0.15 nM FBXL11, 30 nM H3K36me2-biotin labeled peptide (Anaspec cat #64442), 0.2 μM alpha-ketoglutaric acid in assay buffer of 50 mM HEPES, pH7.3, 0.005% Brij35, 0.5 mM TCEP, 0.2 mg/ml BSA, 50 μM sodium L-ascorbate, 5 μM ammonium iron(II) sulfate. Reaction product is determined quantitatively by AlphaScreen detection after the addition of detection reagents anti-H3K36me1 antibody, AlphaScreen® Streptavidin-coated Donor beads, and AlphaScreen® Protein A Acceptor beads in 50 mM HEPES, pH7.3, 10 mM NaCl, 0.005% Brij35, 5 mM EDTA, 2 mg/ml BSA to final 10 μg/ml beads.The assay reaction was initiated by the following: 3 μl of the mixture of 90 nM H3K36me2-biotin labeled peptide and 0.6 μM alpha-ketoglutaric acid with 3 μl of 11-point serial diluted inhibitor in 3% DMSO are added to each well of 384 well Proxiplate (Perkin Elmer), followed by the addition of 3 μl of 0.45 nM FBXL11 to initiate the reaction. The reaction mixture is incubated at room temperature for 1 hour, and terminated by the addition of 3 μl of appropriate dilution of anti H3K36me1 antibody in 50 mM HEPES, pH7.3, 10 mM NaCl, 0.005% Brij35, 5 mM EDTA, 2 mg/ml BSA. Plates will then incubated at room temperature for 40 minutes, followed by addition of 3 ul of 50 μg/ml AlphaScreen® Streptavidin-coated Donor beads and AlphaScreen® Protein A Acceptor beads in 50 mM HEPES, pH7.3, 10 mM NaCl, 0.005% Brij35, 5 mM EDTA, 2 mg/ml BSA. Plates will then be read by EnVision Multilabel Reader in AlphaScreen mode after minimum 2 hour incubation at room temperature. The AlphaScreen signal for each well is used to determine inhibition constant (IC50).

On to `Clc1cccc(Cn2cnc(-c3cc(-c4nn[nH]c4I)ccn3)c2)c1Cl`, for which the IC50 entry in assay [1] was “in the range around 550 nM”.
Consider `CC(c1ccccc1)n1cnc(-c2cc(-c3c[nH]nn3)ccn2)c1` (stereo not drawn), for which the IC50 entry in assay [1] is “in the range around 550 nM”.
For `Clc1ccccc1Cn1cnc(-c2cc3[nH]nnc3cn2)c1`, in assay [1], the IC50 result is “in the range around 5500 nM”.
For the molecule `Fc1[nH]nnc1-c1ccnc(-c2cn(Cc3cccc(Cl)c3Cl)cn2)c1`, in assay [1], the IC50 result was “in the range around 550 nM”.
On to `Clc1ccc(Cn2cnc(-c3cc4[nH]nnc4cn3)c2)cc1`, for which the 50% inhibitory concentration (IC50) result in assay [1] was “in the range around 5500 nM”.
The same measure, in the same setting: with `Clc1[nH]nnc1-c1ccnc(-c2cn(CCc3cccc4ccccc34)cn2)c1` the entry was “in the range around 5500 nM”.
Still for that read-out and setting: with `Clc1ccccc1Cn1cnc(-c2cc(-c3cn[nH]n3)ccn2)c1Br` the entry was “in the range around 550 nM”; with `c1ccc(Cn2cnc(-c3cc4[nH]nnc4cn3)c2)cc1`, “in the range around 550 nM”; with `c1ccc(OCC2CC2)c(CCn2cnc(-c3cc(-c4c[nH]nn4)ccn3)c2)c1`, “in the range around 550 nM”.
Still for that read-out and setting: with `c1ccc(-c2ccccc2CCn2cnc(-c3cc(-c4c[nH]nn4)ccn3)c2)cc1` the entry was “in the range around 5500 nM”; with `COc1cc(-c2c(-c3cc(-c4c[nH]nn4)ccn3)ncn2C)ccc1F`, “in the range around 550 nM”.
Take `Cn1cnc(-c2cc(-c3c[nH]nn3)ccn2)c1-c1ccc(F)cc1`: in assay [1], the half-inhibitory concentration (IC50) entry is “in the range around 550 nM”.
As to `c1nc(-c2cn(CC3CC3)cn2)cc2[nH]nnc12`, the IC50 result in assay [1] is “in the range around 5500 nM”.
On to `Clc1cccc(Cn2cnc(-c3cc4[nH]nnc4cn3)c2)c1`, for which, in assay [1], the IC50 result is “in the range around 5500 nM”.
Turning to `COc1ccccc1CCn1cnc(-c2cc(-c3c[nH]nn3)ccn2)c1`, the concentration for half-maximal inhibition (IC50) result in assay [1] was “in the range around 550 nM”.
For `CCOc1cc(-c2c(-c3cc(-c4c[nH]nn4)ccn3)ncn2C)ccc1F`, the IC50 entry in assay [1] is “in the range around 5500 nM”; in assay [2] it was “in the range around 550 nM”.
In the case of `Cn1cnc(-c2cc3[nH]nnc3cn2)c1-c1ccc(F)cc1`, in assay [1], the IC50 entry is “in the range around 5500 nM”.
`N#Cc1[nH]nnc1-c1ccnc(-c2cn(CCc3cccc4ccccc34)cn2)c1`: the IC50 result in assay [1] was “in the range around 550 nM”.
On to `Fc1[nH]nnc1-c1ccnc(-c2cn(CCc3cccc4ccccc34)cn2)c1`, for which the IC50 entry in assay [1] was “in the range around 550 nM”.
`COc1cccc(Cn2cnc(-c3cc(-c4c[nH]nn4)ccn3)c2)c1F`: in assay [1], the half-maximal inhibitory concentration (IC50) result is “in the range around 550 nM”.
Take `FC(F)(F)COc1ccccc1CCn1cnc(-c2cc(-c3c[nH]nn3)ccn2)c1`: the IC50 entry in assay [1] was “in the range around 550 nM”.
On to `Cn1cnc(-c2cc(-c3nn[nH]c3F)ccn2)c1-c1ccc(F)cc1OCC1CC1`, for which the IC50 entry in assay [1] is “in the range around 5500 nM”.
For `Clc1ccccc1Cn1cnc(-c2cc(-c3c[nH]nn3)ccn2)c1`, the IC50 result in assay [1] and in assay [2] was “in the range around 550 nM” in each case.
On to `Clc1ccc(-n2cnc(-c3cc4[nH]nnc4cn3)c2)cc1`, for which, in assay [1], the IC50 entry was “in the range around 5500 nM”.
Turning to `c1ccc(Oc2ccccc2CCn2cnc(-c3cc(-c4c[nH]nn4)ccn3)c2)cc1`, the IC50 result in assay [1] is “in the range around 5500 nM”.
For the molecule `c1ccc2c(c1)CCCC2Cn1cnc(-c2cc(-c3c[nH]nn3)ccn2)c1` (stereo not drawn), the IC50 result in assay [1] is “in the range around 550 nM”.
On to `Cc1cccc(Cn2cnc(-c3cc(-c4c[nH]nn4)ccn3)c2)c1F`, for which the half-inhibitory concentration (IC50) result in assay [1] is “in the range around 550 nM”.
Take `CCOc1ccccc1CCn1cnc(-c2cc(-c3c[nH]nn3)ccn2)c1`: the IC50 entry in assay [1] is “in the range around 550 nM”.
Consider `FC(F)(F)c1ccccc1CCn1cnc(-c2cc(-c3c[nH]nn3)ccn2)c1`, for which the IC50 result in assay [1] is “in the range around 550 nM”.
Consider `CC(C)(Cn1cnc(-c2cc(-c3c[nH]nn3)ccn2)c1)c1ccccc1Cl`, for which, in assay [1], the IC50 entry was “in the range around 550 nM”.
For the molecule `Clc1ccc(Cn2cnc(-c3cc4[nH]nnc4cn3)c2)cc1Cl`, the IC50 result in assay [1] was “in the range around 5500 nM”.
For `FC(F)(F)c1cccc(Cn2cnc(-c3cc(-c4c[nH]nn4)ccn3)c2)c1Cl`, the IC50 entry in assay [1] is “in the range around 550 nM”.
Turning to `Clc1cccc(Cn2cnc(-c3cc(-c4c[nH]nn4)ccn3)c2)c1Cl`, the IC50 result in assay [1] was “in the range around 550 nM”.
Take `Clc1ccccc1-n1cnc(-c2cc3[nH]nnc3cn2)c1`: the IC50 result in assay [1] was “in the range around 5500 nM”.
For `Fc1c(Cn2cnc(-c3cc(-c4c[nH]nn4)ccn3)c2)cccc1OC(F)(F)F`, the IC50 result in assay [1] was “in the range around 5500 nM”.
Turning to `FC(F)(F)Oc1ccccc1CCn1cnc(-c2cc(-c3c[nH]nn3)ccn2)c1`, the half-maximal inhibitory concentration (IC50) result in assay [1] is “in the range around 550 nM”.
`CC(Cc1ccccc1)n1cnc(-c2cc(-c3c[nH]nn3)ccn2)c1` (stereo not drawn): the IC50 entry in assay [1] was “in the range around 5500 nM”.
As to `N#Cc1[nH]nnc1-c1ccnc(-c2cn(Cc3cccc(Cl)c3Cl)cn2)c1`, in assay [1], the IC50 result is “in the range around 5500 nM”.
On to `c1ccc(COc2ccccc2CCn2cnc(-c3cc(-c4c[nH]nn4)ccn3)c2)cc1`, for which, in assay [1], the IC50 entry is “in the range around 5500 nM”.
In the case of `Cn1cnc(-c2cc(-c3c[nH]nn3)ccn2)c1-c1ccc(F)cc1OCC1CC1`, in assay [1], the IC50 result is “in the range around 5500 nM”.
Take `c1ccc2c(CCn3cnc(-c4cc(-c5c[nH]nn5)ccn4)c3)cccc2c1`: the IC50 result in assay [1] is “in the range around 550 nM”.
The same measure, in the same setting: with `N#Cc1[nH]nnc1-c1ccnc(-c2cn(CC3CCCc4ccccc43)cn2)c1` (stereo not drawn) the entry was “in the range around 550 nM”; with `Clc1cc(Cl)cc(-n2cnc(-c3cc4[nH]nnc4cn3)c2)c1`, “in the range around 5500 nM”.
For `Clc1cccc(-n2cnc(-c3cc4[nH]nnc4cn3)c2)c1`, the IC50 entry in assay [1] was “in the range around 5500 nM”; in assay [2], “in the range around 550 nM”.
For `N#Cc1[nH]nnc1-c1ccnc(-c2cn(Cc3ccccc3Cl)cn2)c1`, in assay [1], the IC50 result was “in the range around 5500 nM”.
